Reference: article PMC10465233, “Lys-urea-Aad, Lys-urea-Cmc and Lys-urea-Cms as potential pharmacophores for the design of PSMA-targeted radioligands to reduce off-target uptake in kidneys and salivary glands” (Theranostics, 2023)
Read-outs that look alike come from different tables or passages of the source.

Experiments:
[1] = design: method as in earlier work; details: cited from earlier work
[2] = test system: LNCaP tumor-bearing mice; test: Ex vivo biodistribution in LNCaP tumor-bearing mice; design: species or system mouse
Description: Imaging, biodistribution and radioligand therapy experiments were performed following previously published procedures using male NOD-scid IL2Rg^null (NSG) or NOD.Cg-Rag1^tm1MomIl2rg^tm1Wjl/SzJ (NRG) mice [10]-[12],[14]-[15]. The experiments were conducted according to the guidelines established by the Canadian Council on Animal Care and approved by Animal Ethics Committee of the University of British Columbia. The mice were briefly sedated by inhalation of 2% isoflurane in oxygen, and implanted subcutaneously with 1×10^7 LNCaP cells behind the left shoulder. The mice were imaged or used in biodistribution studies when the tumor grew to 5-8 mm in diameter over a period of 4-5 weeks.
For biodistribution studies, the mice were injected with the radioligand (2-4 MBq) as described above. For blocking, the mice were co-injected with nonradioactive DCFPyL (0.5 mg). At predetermined time points, the mice were sedated by isoflurane inhalation and euthanized by CO2 inhalation. Blood was withdrawn by cardiac puncture, and organs/tissues of interest were collected, weighed and counted using an automatic gamma counter (Tables S4-S7).

O=C([O-])CN1CCN(CC(=O)[O-])CCN(CC(=O)NCC2CCC(C(=O)NC(Cc3c4ccccc4cc4ccccc34)C(=O)NCCCCC(NC(=O)NC(CCCC(=O)O)C(=O)O)C(=O)O)CC2)CCN(CC(=O)[O-])CC1.[177Lu+3] (centres unmarked) [[^177Lu]Lu-HTK03149]
Kinetics value ([1]; source organ Brain): 2.23E-03 MBq-h/MBq | Kinetics value ([1]; source organ Cortical bone): 7.60E-02 MBq-h/MBq | Kinetics value ([1]; source organ Heart): 1.94E-02 MBq-h/MBq | Kinetics value ([1]; source organ Kidneys): 2.41E-01 MBq-h/MBq | Kinetics value ([1]; source organ Large intestine contents): 9.24E-02 MBq-h/MBq | Kinetics value ([1]; source organ Liver): 3.91E-01 MBq-h/MBq | Kinetics value ([1]; source organ Lungs): 1.72E-02 MBq-h/MBq | Kinetics value ([1]; source organ Pancreas): 1.79E-02 MBq-h/MBq | Kinetics value ([1]; source organ Remainder of the body): 5.31E-01 MBq-h/MBq | Kinetics value ([1]; source organ Spleen): 2.30E-02 MBq-h/MBq | Kinetics value ([1]; source organ Stomach): 8.07E-03 MBq-h/MBq | Kinetics value ([1]; source organ Testes): 1.29E-02 MBq-h/MBq | Kinetics value ([1]; source organ Thyroid): 2.03E-03 MBq-h/MBq | Kinetics value ([1]; source organ Urinary bladder): 8.14E-01 MBq-h/MBq

COc1ccc(CCCC(=O)NCC(=O)N[C@@H](CCCCNC(=O)CN2CCN(CC(=O)[O-])CCN(CC(=O)[O-])CCN(CC(=O)[O-])CC2)C(=O)NC[C@H]2CC[C@H](C(=O)N[C@@H](Cc3c4ccccc4cc4ccccc34)C(=O)NCCCC[C@H](NC(=O)N[C@@H](CSCC(=O)O)C(=O)O)C(=O)O)CC2)cc1.[177Lu+3] [[^177Lu]Lu-HTK04048]
Adrenal glands uptake ([2]; 1 h post-injection): 4.43 ± 1.11 %ID/g | Blood uptake ([2]; 1 h post-injection): 19.8 ± 3.38 %ID/g | Blood:Salivary gland uptake ratio ([2]; 1 h post-injection): 6.78 ± 0.76 | Bone uptake ([2]; 1 h post-injection): 1.10 ± 0.16 %ID/g | Brain uptake ([2]; 1 h post-injection): 0.29 ± 0.03 %ID/g | Fat uptake ([2]; 1 h post-injection): 1.56 ± 0.45 %ID/g | Heart uptake ([2]; 1 h post-injection): 4.74 ± 0.60 %ID/g | Intestines uptake ([2]; 1 h post-injection): 1.38 ± 0.22 %ID/g | Kidneys uptake ([2]; 1 h post-injection): 17.4 ± 4.32 %ID/g | Lacrimal glands uptake ([2]; 1 h post-injection): 0.42 ± 0.12 %ID/g | Liver uptake ([2]; 1 h post-injection): 3.94 ± 0.69 %ID/g | Lungs uptake ([2]; 1 h post-injection): 9.52 ± 1.44 %ID/g | Muscle uptake ([2]; 1 h post-injection): 1.54 ± 0.20 %ID/g | Pancreas uptake ([2]; 1 h post-injection): 1.77 ± 0.17 %ID/g | Salivary glands uptake ([2]; 1 h post-injection): 2.92 ± 0.36 %ID/g | Spleen uptake ([2]; 1 h post-injection): 2.57 ± 0.48 %ID/g | Stomach uptake ([2]; 1 h post-injection): 0.75 ± 0.11 %ID/g | Testes uptake ([2]; 1 h post-injection): 2.60 ± 0.62 %ID/g | Thyroid uptake ([2]; 1 h post-injection): 3.97 ± 0.47 %ID/g | Tumor uptake ([2]; 1 h post-injection): 16.5 ± 5.48 %ID/g | Tumor:Blood uptake ratio ([2]; 1 h post-injection): 0.84 ± 0.22 | Tumor:Kidney uptake ratio ([2]; 1 h post-injection): 0.99 ± 0.34 | Tumor:Muscle uptake ratio ([2]; 1 h post-injection): 10.7 ± 2.87 | Tumor:Salivary gland uptake ratio ([2]; 1 h post-injection): 5.64 ± 1.51 | Adrenal glands uptake ([2]; 4 h post-injection): 2.17 ± 0.21 %ID/g | Blood uptake ([2]; 4 h post-injection): 11.7 ± 1.39 %ID/g | Blood:Salivary gland uptake ratio ([2]; 4 h post-injection): 6.12 ± 0.58 | Bone uptake ([2]; 4 h post-injection): 0.69 ± 0.11 %ID/g | Brain uptake ([2]; 4 h post-injection): 0.18 ± 0.01 %ID/g | Fat uptake ([2]; 4 h post-injection): 0.94 ± 0.13 %ID/g | Heart uptake ([2]; 4 h post-injection): 2.87 ± 0.30 %ID/g | Intestines uptake ([2]; 4 h post-injection): 1.00 ± 0.08 %ID/g | Kidneys uptake ([2]; 4 h post-injection): 12.5 ± 1.35 %ID/g | Lacrimal glands uptake ([2]; 4 h post-injection): 0.54 ± 0.52 %ID/g | Liver uptake ([2]; 4 h post-injection): 2.28 ± 0.46 %ID/g | Lungs uptake ([2]; 4 h post-injection): 5.92 ± 0.79 %ID/g | Muscle uptake ([2]; 4 h post-injection): 0.96 ± 0.09 %ID/g | Pancreas uptake ([2]; 4 h post-injection): 1.15 ± 0.14 %ID/g | Salivary glands uptake ([2]; 4 h post-injection): 1.91 ± 0.20 %ID/g | Spleen uptake ([2]; 4 h post-injection): 1.96 ± 0.39 %ID/g | Stomach uptake ([2]; 4 h post-injection): 0.71 ± 0.13 %ID/g | Testes uptake ([2]; 4 h post-injection): 2.72 ± 0.34 %ID/g | Thyroid uptake ([2]; 4 h post-injection): 2.68 ± 0.23 %ID/g | Tumor uptake ([2]; 4 h post-injection): 39.4 ± 22.4 %ID/g | Tumor:Blood uptake ratio ([2]; 4 h post-injection): 3.49 ± 2.31 | Tumor:Kidney uptake ratio ([2]; 4 h post-injection): 3.27 ± 2.16 | Tumor:Muscle uptake ratio ([2]; 4 h post-injection): 42.2 ± 27.3 | Tumor:Salivary gland uptake ratio ([2]; 4 h post-injection): 20.9 ± 11.9 | Adrenal glands uptake ([2]; 24 h post-injection): 0.67 ± 0.26 %ID/g | Blood uptake ([2]; 24 h post-injection): 0.62 ± 0.16 %ID/g | Blood:Salivary gland uptake ratio ([2]; 24 h post-injection): 1.61 ± 0.40 | Bone uptake ([2]; 24 h post-injection): 0.11 ± 0.02 %ID/g | Brain uptake ([2]; 24 h post-injection): 0.03 ± 0.00 %ID/g | Fat uptake ([2]; 24 h post-injection): 0.15 ± 0.05 %ID/g | Heart uptake ([2]; 24 h post-injection): 0.34 ± 0.05 %ID/g | Intestines uptake ([2]; 24 h post-injection): 0.46 ± 0.31 %ID/g | Kidneys uptake ([2]; 24 h post-injection): 5.68 ± 1.28 %ID/g | Lacrimal glands uptake ([2]; 24 h post-injection): 0.06 ± 0.01 %ID/g | Liver uptake ([2]; 24 h post-injection): 0.77 ± 0.52 %ID/g | Lungs uptake ([2]; 24 h post-injection): 1.05 ± 0.36 %ID/g | Muscle uptake ([2]; 24 h post-injection): 0.11 ± 0.02 %ID/g | Pancreas uptake ([2]; 24 h post-injection): 0.15 ± 0.03 %ID/g | Salivary glands uptake ([2]; 24 h post-injection): 0.39 ± 0.08 %ID/g | Spleen uptake ([2]; 24 h post-injection): 0.64 ± 0.10 %ID/g | Stomach uptake ([2]; 24 h post-injection): 0.83 ± 0.66 %ID/g | Testes uptake ([2]; 24 h post-injection): 0.67 ± 0.24 %ID/g | Thyroid uptake ([2]; 24 h post-injection): 0.53 ± 0.07 %ID/g | Tumor uptake ([2]; 24 h post-injection): 65.3 ± 19.6 %ID/g | Tumor:Blood uptake ratio ([2]; 24 h post-injection): 113 ± 44.5 | Tumor:Kidney uptake ratio ([2]; 24 h post-injection): 11.5 ± 2.22 | Tumor:Muscle uptake ratio ([2]; 24 h post-injection): 594 ± 177 | Tumor:Salivary gland uptake ratio ([2]; 24 h post-injection): 175 ± 58.1 | Adrenal glands uptake ([2]; 72 h post-injection): 0.33 ± 0.06 %ID/g | Blood uptake ([2]; 72 h post-injection): 0.08 ± 0.06 %ID/g | Blood:Salivary gland uptake ratio ([2]; 72 h post-injection): 0.43 ± 0.28 | Bone uptake ([2]; 72 h post-injection): 0.06 ± 0.02 %ID/g | Brain uptake ([2]; 72 h post-injection): 0.01 ± 0.00 %ID/g | Fat uptake ([2]; 72 h post-injection): 0.07 ± 0.03 %ID/g | Heart uptake ([2]; 72 h post-injection): 0.14 ± 0.03 %ID/g | Intestines uptake ([2]; 72 h post-injection): 0.13 ± 0.08 %ID/g | Kidneys uptake ([2]; 72 h post-injection): 2.19 ± 0.21 %ID/g | Lacrimal glands uptake ([2]; 72 h post-injection): 0.01 ± 0.01 %ID/g | Liver uptake ([2]; 72 h post-injection): 0.25 ± 0.02 %ID/g | Lungs uptake ([2]; 72 h post-injection): 0.26 ± 0.08 %ID/g | Muscle uptake ([2]; 72 h post-injection): 0.03 ± 0.01 %ID/g | Pancreas uptake ([2]; 72 h post-injection): 0.06 ± 0.01 %ID/g | Salivary glands uptake ([2]; 72 h post-injection): 0.18 ± 0.03 %ID/g | Spleen uptake ([2]; 72 h post-injection): 0.54 ± 0.14 %ID/g | Stomach uptake ([2]; 72 h post-injection): 0.20 ± 0.17 %ID/g | Testes uptake ([2]; 72 h post-injection): 0.35 ± 0.05 %ID/g | Thyroid uptake ([2]; 72 h post-injection): 0.28 ± 0.05 %ID/g | Tumor uptake ([2]; 72 h post-injection): 64.1 ± 15.0 %ID/g | Tumor:Blood uptake ratio ([2]; 72 h post-injection): 1493 ± 1213 | Tumor:Kidney uptake ratio ([2]; 72 h post-injection): 29.2 ± 6.22 | Tumor:Muscle uptake ratio ([2]; 72 h post-injection): 2043 ± 734 | Tumor:Salivary gland uptake ratio ([2]; 72 h post-injection): 362 ± 111 | Adrenal glands uptake ([2]; 120 h post-injection): 0.30 ± 0.14 %ID/g | Blood uptake ([2]; 120 h post-injection): 0.04 ± 0.03 %ID/g | Blood:Salivary gland uptake ratio ([2]; 120 h post-injection): 0.22 ± 0.13 | Bone uptake ([2]; 120 h post-injection): 0.05 ± 0.02 %ID/g | Brain uptake ([2]; 120 h post-injection): 0.01 ± 0.00 %ID/g | Fat uptake ([2]; 120 h post-injection): 0.05 ± 0.03 %ID/g | Heart uptake ([2]; 120 h post-injection): 0.08 ± 0.02 %ID/g | Intestines uptake ([2]; 120 h post-injection): 0.10 ± 0.10 %ID/g | Kidneys uptake ([2]; 120 h post-injection): 1.43 ± 0.48 %ID/g | Lacrimal glands uptake ([2]; 120 h post-injection): 0.01 ± 0.01 %ID/g | Liver uptake ([2]; 120 h post-injection): 0.18 ± 0.07 %ID/g | Lungs uptake ([2]; 120 h post-injection): 0.12 ± 0.05 %ID/g | Muscle uptake ([2]; 120 h post-injection): 0.02 ± 0.01 %ID/g | Pancreas uptake ([2]; 120 h post-injection): 0.05 ± 0.03 %ID/g | Salivary glands uptake ([2]; 120 h post-injection): 0.13 ± 0.03 %ID/g | Spleen uptake ([2]; 120 h post-injection): 0.55 ± 0.27 %ID/g | Stomach uptake ([2]; 120 h post-injection): 0.04 ± 0.02 %ID/g | Testes uptake ([2]; 120 h post-injection): 0.22 ± 0.09 %ID/g | Thyroid uptake ([2]; 120 h post-injection): 0.17 ± 0.02 %ID/g | Tumor uptake ([2]; 120 h post-injection): 65.7 ± 19.1 %ID/g | Tumor:Blood uptake ratio ([2]; 120 h post-injection): 4346 ± 4168 | Tumor:Kidney uptake ratio ([2]; 120 h post-injection): 52.1 ± 16.3 | Tumor:Muscle uptake ratio ([2]; 120 h post-injection): 3358 ± 2122 | Tumor:Salivary gland uptake ratio ([2]; 120 h post-injection): 604 ± 226 | Peaked tumor uptake relative to ^68Ga-labeled non-albumin-binder analog ([2]; mouse, in vivo): ~ 3 fold | Peaked average tumor uptake ([2]; peak over 1-120 h post-injection): ~ 60 %ID/g | Time of peak tumor uptake ([2]; post-injection, listed as 177Lu-labeled HTK04048): 4 to 24 h
